Experimental data as given in article PMC10746543, “Design principles for cyclin K molecular glue degraders” (Nature Chemical Biology, 2023).
Values joined by “and” are separate entries in the source; they are usually repeats but may differ in a detail not shown here. Equal entries are not always repeated. Where two headings read alike, the source gives them in different places.

What was measured:
[1] = target: T1, CDK12–cyclin K and DDB1 (Homo sapiens, UniProt Q16531+Q9NYV4, K965R); assay: TR-FRET ternary complex formation assay (compound titration); assay type: binding
T1 construct: His6–CDK12 (a.a. 713–1,052); full-length or beta-propeller B domain deletion (ΔBPB: a.a. 396–705 deleted) constructs of His6–DDB1ΔBPB, StrepII–Avi–DDB1, or His6–Spy–DDB1; made in house; host or cells: Trichoplusia ni High Five insect cells (baculovirus)
Method in brief: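 A time delay of 70 μs preceded acquisition, limiting background fluorescence; the ratio of emission at 520 versus 490 nm gave the TR-FRET value.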

[2] = system: HEK293T cells; assay: Drug sensitivity assay (CellTiter-Glo viability) with or without MLN4924 pretreatment; assay type: cell-based, human; settings: for CTG: MLN4924 yes, HEK293T, single well; for EC50: Homo sapiens, HEK-293T, HEK293T viability, 72 h, compound alone, read-out: Cellular assays EC50; for EC50 / Toxicity rescue: Supplementary Table 2; for Toxicity rescue: MLN4924-mediated cytotoxicity rescue, 10 µM used where n.d.
Method in brief: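 Cas9-expressing HEK293T cells receive either vehicle or 100 nM MLN4924, then compounds 2 h afterwards. After three days, luminescence-based viability is measured and calculated relative to DMSO.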

[3] = target: T2, CDK12 (Homo sapiens, UniProt Q16531+Q9NYV4); assay: Label-free quantitative mass spectrometry in MDA-MB-231 cells, CDK12; assay type: cell-based; settings: for CDK12 peptide count: label-free quantitative MS, replicate values; for CDK12 peptide count (DMSO-normalised): normalised to DMSO = 1, replicate values
T2 construct: endogenous in cells; host or cells: MDA-MB-231
Method in brief: (§1)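 MDA-MB-231 cells treated 5 h with 1 µM cyclin K degrader or DMSO. Lysates digested with LysC and trypsin, then analysed by label-free diaPASEF LC-MS on a TimsTOF Pro2 with directDIA search and MS1 precursor quantification. Protein abundances scaled and analysed with limma.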

[4] = target: T3, CDK13 (Homo sapiens, UniProt Q14004+Q16531); assay: Label-free quantitative mass spectrometry in MDA-MB-231 cells, CDK13; assay type: cell-based; settings: for CDK13 peptide count: label-free quantitative MS, replicate values; for CDK13 peptide count (DMSO-normalised): normalised to DMSO = 1, replicate values
T3 construct: endogenous in cells; host or cells: MDA-MB-231
Method in brief: as §1

[5] = compound concentration 0.468 nM
[6] = compound concentration 7.92001 nM
[7] = compound concentration 15.84 nM
[8] = compound concentration 30.96 nM
[9] = compound concentration 62.6401 nM
[10] = compound concentration 125.28 nM
[11] = compound concentration 244.8 nM
[12] = compound concentration 993.601 nM
[13] = compound concentration 2001.6 nM
[14] = in vitro complex formation, 50 nM CDK12–cyclin K, 100 nM DDB1, text and figures, read-out: TR-FRET EC50
[15] = sheet MOESM7, read-out: log TR-FRET EC50 (converted)
[16] = source data sheet correlations, read-out: TR-FRET EC50

T2 sequence (Q9NYV4 whole entry): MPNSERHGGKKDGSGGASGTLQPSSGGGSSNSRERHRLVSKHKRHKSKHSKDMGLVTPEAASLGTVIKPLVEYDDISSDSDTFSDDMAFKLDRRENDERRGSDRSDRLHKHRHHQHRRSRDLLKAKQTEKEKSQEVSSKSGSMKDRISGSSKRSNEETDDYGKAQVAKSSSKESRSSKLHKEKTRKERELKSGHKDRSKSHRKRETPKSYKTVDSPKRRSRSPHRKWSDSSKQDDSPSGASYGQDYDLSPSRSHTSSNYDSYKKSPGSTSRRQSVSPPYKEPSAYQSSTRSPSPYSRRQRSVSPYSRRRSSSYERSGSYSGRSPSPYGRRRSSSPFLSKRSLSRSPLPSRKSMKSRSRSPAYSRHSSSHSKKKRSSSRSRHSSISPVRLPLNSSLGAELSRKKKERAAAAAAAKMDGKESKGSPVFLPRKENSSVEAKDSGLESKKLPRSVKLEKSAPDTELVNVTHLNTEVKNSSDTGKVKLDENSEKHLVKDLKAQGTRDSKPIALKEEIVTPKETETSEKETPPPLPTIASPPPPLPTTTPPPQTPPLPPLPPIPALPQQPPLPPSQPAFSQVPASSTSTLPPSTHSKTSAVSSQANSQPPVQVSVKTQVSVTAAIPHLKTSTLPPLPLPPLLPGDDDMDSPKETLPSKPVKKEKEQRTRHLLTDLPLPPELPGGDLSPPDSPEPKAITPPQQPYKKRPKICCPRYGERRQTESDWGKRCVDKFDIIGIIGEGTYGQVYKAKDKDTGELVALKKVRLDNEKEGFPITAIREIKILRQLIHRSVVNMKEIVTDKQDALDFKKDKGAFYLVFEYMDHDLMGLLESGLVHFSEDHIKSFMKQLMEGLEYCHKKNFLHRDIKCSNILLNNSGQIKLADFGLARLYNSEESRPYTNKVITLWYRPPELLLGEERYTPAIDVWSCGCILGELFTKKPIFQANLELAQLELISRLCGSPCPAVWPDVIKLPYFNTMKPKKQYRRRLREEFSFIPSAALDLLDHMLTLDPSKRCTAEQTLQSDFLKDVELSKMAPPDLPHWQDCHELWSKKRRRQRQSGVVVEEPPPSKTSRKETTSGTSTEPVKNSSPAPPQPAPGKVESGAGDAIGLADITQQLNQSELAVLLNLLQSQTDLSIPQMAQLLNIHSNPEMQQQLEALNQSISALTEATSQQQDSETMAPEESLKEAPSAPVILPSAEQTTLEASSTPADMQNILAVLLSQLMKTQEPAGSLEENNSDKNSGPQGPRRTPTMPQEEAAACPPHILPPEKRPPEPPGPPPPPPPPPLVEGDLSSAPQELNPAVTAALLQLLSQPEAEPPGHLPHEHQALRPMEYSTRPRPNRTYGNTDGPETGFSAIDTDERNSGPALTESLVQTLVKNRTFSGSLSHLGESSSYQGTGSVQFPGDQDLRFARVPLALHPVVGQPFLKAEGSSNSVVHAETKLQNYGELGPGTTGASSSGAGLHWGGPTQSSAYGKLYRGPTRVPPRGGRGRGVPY
T2 sequence (O75909 whole entry partner): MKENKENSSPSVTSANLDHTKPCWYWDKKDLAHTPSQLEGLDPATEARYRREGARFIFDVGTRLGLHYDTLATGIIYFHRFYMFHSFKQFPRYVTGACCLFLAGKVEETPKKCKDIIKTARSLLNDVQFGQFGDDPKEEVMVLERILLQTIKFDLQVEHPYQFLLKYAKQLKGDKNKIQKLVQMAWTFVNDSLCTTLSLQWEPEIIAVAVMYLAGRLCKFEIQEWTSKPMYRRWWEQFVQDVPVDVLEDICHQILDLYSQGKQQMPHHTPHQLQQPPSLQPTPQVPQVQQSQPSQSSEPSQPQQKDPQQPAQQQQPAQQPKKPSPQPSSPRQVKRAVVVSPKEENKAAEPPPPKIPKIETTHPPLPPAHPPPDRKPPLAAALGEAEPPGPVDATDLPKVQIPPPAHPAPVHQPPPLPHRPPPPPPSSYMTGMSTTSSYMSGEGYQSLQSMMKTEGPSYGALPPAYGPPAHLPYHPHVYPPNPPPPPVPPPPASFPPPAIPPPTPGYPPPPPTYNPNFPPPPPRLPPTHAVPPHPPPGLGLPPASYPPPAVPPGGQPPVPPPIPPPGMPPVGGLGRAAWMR
T2 sequence (Q16531 2-1140 limits assumed): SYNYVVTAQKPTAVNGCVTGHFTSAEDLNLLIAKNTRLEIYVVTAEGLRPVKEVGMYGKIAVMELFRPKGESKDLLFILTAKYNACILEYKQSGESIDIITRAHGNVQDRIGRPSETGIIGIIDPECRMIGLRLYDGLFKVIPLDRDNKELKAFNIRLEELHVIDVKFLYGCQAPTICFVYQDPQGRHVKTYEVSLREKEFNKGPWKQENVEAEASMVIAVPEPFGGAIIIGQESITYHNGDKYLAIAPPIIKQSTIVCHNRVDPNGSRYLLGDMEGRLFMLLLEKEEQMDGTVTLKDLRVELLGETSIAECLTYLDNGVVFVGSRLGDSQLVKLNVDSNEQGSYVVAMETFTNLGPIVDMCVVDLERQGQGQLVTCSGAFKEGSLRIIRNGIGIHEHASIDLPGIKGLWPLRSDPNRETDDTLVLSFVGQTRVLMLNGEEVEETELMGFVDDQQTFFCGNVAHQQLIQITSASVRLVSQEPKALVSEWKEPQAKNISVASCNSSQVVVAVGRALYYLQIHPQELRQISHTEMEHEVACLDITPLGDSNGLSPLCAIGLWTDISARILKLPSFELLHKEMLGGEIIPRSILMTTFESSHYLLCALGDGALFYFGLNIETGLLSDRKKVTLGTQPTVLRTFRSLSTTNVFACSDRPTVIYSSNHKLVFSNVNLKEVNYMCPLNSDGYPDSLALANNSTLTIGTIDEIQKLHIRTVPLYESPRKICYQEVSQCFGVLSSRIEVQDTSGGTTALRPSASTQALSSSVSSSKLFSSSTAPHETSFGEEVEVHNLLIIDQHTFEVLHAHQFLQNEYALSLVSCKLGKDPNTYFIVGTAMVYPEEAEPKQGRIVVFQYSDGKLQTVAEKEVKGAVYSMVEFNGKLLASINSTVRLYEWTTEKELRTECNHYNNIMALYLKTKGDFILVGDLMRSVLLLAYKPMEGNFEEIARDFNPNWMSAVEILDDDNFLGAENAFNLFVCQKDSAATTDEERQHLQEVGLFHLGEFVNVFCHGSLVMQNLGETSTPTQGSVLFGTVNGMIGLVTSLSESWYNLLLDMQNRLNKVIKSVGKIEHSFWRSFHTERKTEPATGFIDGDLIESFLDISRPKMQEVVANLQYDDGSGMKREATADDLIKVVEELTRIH
T1 sequence (Q9NYV4 713-1052 K965R): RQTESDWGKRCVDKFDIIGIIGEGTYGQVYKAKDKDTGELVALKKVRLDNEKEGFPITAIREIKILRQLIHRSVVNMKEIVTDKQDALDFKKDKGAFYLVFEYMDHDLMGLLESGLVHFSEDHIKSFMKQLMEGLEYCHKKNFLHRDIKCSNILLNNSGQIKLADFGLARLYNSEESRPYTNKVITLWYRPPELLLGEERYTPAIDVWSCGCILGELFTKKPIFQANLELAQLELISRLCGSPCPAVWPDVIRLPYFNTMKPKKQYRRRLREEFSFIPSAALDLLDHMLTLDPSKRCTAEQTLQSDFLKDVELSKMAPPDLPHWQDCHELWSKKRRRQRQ
T1 sequence (O75909 1-267 partner): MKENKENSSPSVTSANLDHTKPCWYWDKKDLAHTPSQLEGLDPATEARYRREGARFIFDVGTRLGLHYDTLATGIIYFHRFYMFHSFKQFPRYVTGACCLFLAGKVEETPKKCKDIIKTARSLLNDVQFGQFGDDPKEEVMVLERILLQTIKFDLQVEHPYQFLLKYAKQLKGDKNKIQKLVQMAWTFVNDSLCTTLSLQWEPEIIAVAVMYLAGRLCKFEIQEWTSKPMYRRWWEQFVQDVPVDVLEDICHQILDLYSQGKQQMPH
T1 sequence (Q16531 whole entry): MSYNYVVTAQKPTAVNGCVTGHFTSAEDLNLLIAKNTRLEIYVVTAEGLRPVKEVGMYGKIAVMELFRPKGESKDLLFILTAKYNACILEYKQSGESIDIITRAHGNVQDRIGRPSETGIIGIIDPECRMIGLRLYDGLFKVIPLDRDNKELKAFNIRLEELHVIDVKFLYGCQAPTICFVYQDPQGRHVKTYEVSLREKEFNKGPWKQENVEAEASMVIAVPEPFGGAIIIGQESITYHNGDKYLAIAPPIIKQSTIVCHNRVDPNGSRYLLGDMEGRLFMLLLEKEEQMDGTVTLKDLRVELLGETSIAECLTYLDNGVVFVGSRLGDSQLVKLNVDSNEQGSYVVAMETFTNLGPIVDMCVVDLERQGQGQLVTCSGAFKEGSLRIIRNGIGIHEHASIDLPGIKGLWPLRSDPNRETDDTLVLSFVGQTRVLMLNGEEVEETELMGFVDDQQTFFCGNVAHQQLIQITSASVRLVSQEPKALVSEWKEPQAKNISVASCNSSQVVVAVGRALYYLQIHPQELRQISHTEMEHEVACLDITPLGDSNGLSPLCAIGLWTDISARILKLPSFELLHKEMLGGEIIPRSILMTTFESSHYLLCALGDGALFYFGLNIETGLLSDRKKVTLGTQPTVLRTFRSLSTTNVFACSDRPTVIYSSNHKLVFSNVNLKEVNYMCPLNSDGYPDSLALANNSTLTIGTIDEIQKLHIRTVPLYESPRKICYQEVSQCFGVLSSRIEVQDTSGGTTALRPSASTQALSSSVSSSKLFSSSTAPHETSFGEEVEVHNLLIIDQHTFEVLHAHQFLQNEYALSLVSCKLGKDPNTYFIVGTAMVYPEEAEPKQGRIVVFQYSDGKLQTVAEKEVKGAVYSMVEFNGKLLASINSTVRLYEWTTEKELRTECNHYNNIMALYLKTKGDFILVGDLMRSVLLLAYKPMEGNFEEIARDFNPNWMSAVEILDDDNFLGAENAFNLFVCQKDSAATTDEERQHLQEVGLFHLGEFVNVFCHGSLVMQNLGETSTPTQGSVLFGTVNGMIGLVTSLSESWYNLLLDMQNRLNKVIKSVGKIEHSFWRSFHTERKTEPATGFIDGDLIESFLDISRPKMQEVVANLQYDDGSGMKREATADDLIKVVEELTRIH

CC(C)c1nn(-c2c(Cl)cccc2Cl)c2nc(Cc3ccc(OCCO)cc3)[nH]c(=O)c12 [compound 21195]
TR-FRET signal [1, 5]: 0.2628 and 0.2699 and 0.216 and 0.239 and 0.2342 and 0.2245
TR-FRET signal ([1]; compound concentration 2.16 nM): 0.3464 and 0.3831 and 0.355 and 0.3843 and 0.3684 and 0.3664
TR-FRET signal ([1]; compound concentration 3.6 nM): 0.5968 and 0.6945 and 0.6556 and 0.7072 and 0.6869 and 0.6829
TR-FRET signal [1, 6]: 1.121 and 1.282 and 1.315 and 1.383 and 1.34 and 1.348
TR-FRET signal [1, 7]: 1.693 and 2.27 and 2.427 and 2.5504 and 2.497
TR-FRET signal [1, 8]: 2.9489 and 3.238 and 3.271 and 3.348 and 3.319 and 3.3062
TR-FRET signal [1, 9]: 3.288 and 3.494 and 3.577 and 3.452 and 3.519 and 3.526
TR-FRET signal [1, 10]: 3.346 and 3.624 and 3.589 and 3.472 and 3.591 and 3.561
TR-FRET signal [1, 11]: 3.392 and 3.7057 and 3.68 and 3.58 and 3.638 and 3.662
TR-FRET signal [1, 12]: 3.425 and 3.678 and 3.687 and 3.61 and 3.695 and 3.669
TR-FRET signal [1, 13]: 3.544 and 3.666 and 3.468 and 3.558 and 3.691 and 3.74
EC50 [1, 14]: 12 ± 0.4 nM
EC50 [1, 15]: 12 nM
EC50 [1, 16]: 12 nM
viability assay signal (normalized) ([2]; 5 nM, + MLN4924): 0.9981 and 0.9962
viability assay signal (normalized) ([2]; 5 nM, without MLN4924): 1.164 and 1.103
viability assay signal (normalized) ([2]; 10.7 nM, + MLN4924): 1.03 and 0.9545
viability assay signal (normalized) ([2]; 10.7 nM, without MLN4924): 1.004 and 0.916
viability assay signal (normalized) ([2]; 22.9 nM, + MLN4924): 1.044 and 1.059
viability assay signal (normalized) ([2]; 22.9 nM, without MLN4924): 0.9744 and 0.9831
viability assay signal (normalized) ([2]; 48.9 nM, + MLN4924): 0.9201 and 0.8826
viability assay signal (normalized) ([2]; 48.9 nM, without MLN4924): 0.5003 and 0.5087
viability assay signal (normalized) ([2]; 105 nM, + MLN4924): 0.7478 and 0.7261
viability assay signal (normalized) ([2]; 105 nM, without MLN4924): 0.2946 and 0.2725
viability assay signal (normalized) ([2]; 224 nM, + MLN4924): 0.3645 and 0.3756
viability assay signal (normalized) ([2]; 224 nM, without MLN4924): 0.297 and 0.2837
viability assay signal (normalized) ([2]; 478 nM, + MLN4924): 0.2678 and 0.2737
viability assay signal (normalized) ([2]; 478 nM, without MLN4924): 0.2806 and 0.2662
CTG ([2]; 2190 nM): 32283
viability assay signal (normalized) ([2]; 2190 nM, + MLN4924): 0.2528 and 0.2544
viability assay signal (normalized) ([2]; 2190 nM, without MLN4924): 0.2713 and 0.2676
CTG ([2]; 4680 nM): 28534 and 32644
viability assay signal (normalized) ([2]; 4680 nM, + MLN4924): 0.2234 and 0.2556
viability assay signal (normalized) ([2]; 4680 nM, without MLN4924): 0.2632 and 0.2448
CTG ([2]; 10000 nM): 27157 and 28920
viability assay signal (normalized) ([2]; 10000 nM, + MLN4924): 0.2126 and 0.2265
viability assay signal (normalized) ([2]; 10000 nM, without MLN4924): 0.2678 and 0.2469
EC50 [2]: 39 nM
Toxicity rescue [2]: 226%
CDK12 peptide count [3]: 493.905 and 565.93
CDK12 peptide count (DMSO-normalised) [3]: 0.5487 and 0.5845
CDK13 peptide count [4]: 262.248 and 170.145
CDK13 peptide count (DMSO-normalised) [4]: 0.3901 and 0.2615

C[C@H](C(=O)Nc1nc2ccccc2[nH]1)N1Cc2ccccc2C1=O [compound 919278]
TR-FRET signal [1, 5]: 0.3356 and 0.3148
TR-FRET signal ([1]; compound concentration 2.16 nM): 0.4152 and 0.4184
TR-FRET signal ([1]; compound concentration 3.6 nM): 0.5887 and 0.6016
TR-FRET signal [1, 6]: 0.8771 and 0.9002
TR-FRET signal [1, 7]: 1.301 and 1.376
TR-FRET signal [1, 8]: 2 and 2.052
TR-FRET signal [1, 9]: 2.747 and 2.77
TR-FRET signal [1, 10]: 3.33 and 3.298
TR-FRET signal [1, 11]: 3.75 and 3.634
TR-FRET signal [1, 12]: 4.177 and 4.02
TR-FRET signal [1, 13]: 4.179 and 4.0366
EC50 [1, 14]: 38 ± 1 nM
EC50 [1, 15]: 37.8 nM
EC50 [1, 16]: 37.8 nM
viability assay signal (normalized) ([2]; 2 nM, + MLN4924): 1.029 and 0.9647
viability assay signal (normalized) ([2]; 2 nM, without MLN4924): 1.055 and 1.0418
viability assay signal (normalized) ([2]; 4.69 nM, + MLN4924): 1.105 and 1.018
viability assay signal (normalized) ([2]; 4.69 nM, without MLN4924): 1.004 and 1.008
viability assay signal (normalized) ([2]; 11 nM, + MLN4924): 1.0606 and 0.9151
viability assay signal (normalized) ([2]; 11 nM, without MLN4924): 1.048 and 1.059
viability assay signal (normalized) ([2]; 25.7 nM, + MLN4924): 1.025 and 1.119
viability assay signal (normalized) ([2]; 25.7 nM, without MLN4924): 0.893 and 1.0689
viability assay signal (normalized) ([2]; 141 nM, + MLN4924): 1.103 and 1.1762
viability assay signal (normalized) ([2]; 141 nM, without MLN4924): 1.0013 and 1.019
viability assay signal (normalized) ([2]; 331 nM, + MLN4924): 1.1 and 1.102
viability assay signal (normalized) ([2]; 331 nM, without MLN4924): 0.8356 and 0.898
viability assay signal (normalized) ([2]; 4270 nM, + MLN4924): 0.7328 and 0.6837
viability assay signal (normalized) ([2]; 4270 nM, without MLN4924): 0.374 and 0.3286
viability assay signal (normalized) ([2]; 10000 nM, + MLN4924): 0.484 and 0.4101
viability assay signal (normalized) ([2]; 10000 nM, without MLN4924): 0.3001 and 0.3205
EC50 [2]: 559 nM
Toxicity rescue [2]: 749%
CDK12 peptide count [3]: 562.617 and 625.634
CDK12 peptide count (DMSO-normalised) [3]: 0.6251 and 0.6462
CDK13 peptide count [4]: 457.834 and 405.628
CDK13 peptide count (DMSO-normalised) [4]: 0.6811 and 0.6233
